According to US20210371463A1, “Modified Netrin-1 Peptides and Compositions for Cardioprotection” (The Regents of the University of California, priority 2018, published 2021):
Bridge positions count the residues as written; N and C are the ends. Ends that are not written are not given here. mini‑PEG = diethylene glycol

System: mouse hearts subjected to ischemia/reperfusion (I/R) injury
Test: Langendorff perfusion ischemia/reperfusion (I/R) injury, infarct size analysis (TTC staining)
Parameters: % MI Reduction: concentration or dose not given beside the values
Details: for % MI Reduction: vs. I/R Control; for Infarct size: fragments of prior art peptides, Control I/R 37.6±1.3%, Mean±SEM, p<0.001; for % Improvement in MI Reduction: modified peptide vs. closest prior art peptide (V1-9aa, V2-10aa or V3-11aa)
Description: Male C57BL/6J mice (8-12 weeks old) were obtained from the Charles River Laboratories (Wilmington, Mass., USA). After anesthetized with intraperitoneal pentobarbitone (60 mg/kg), mouse hearts were harvested immediately and the aortas were cannulated with a 20-gauge stainless steel blunt needle and transferred to the Langendorff rig and perfused retrograde instantly with modified Krebs-Henseleit buffer (KHB) for 30 minutes as previously described. See Bouhidel et al. Front Biosci (Landmark Ed) 2014; 19:566-570, and Zhang et al., J Mol Cell Cardiol. 2010; 48:1060-1070. Then hearts were pre-perfused for 45 minutes with or without netrin-1 (100 ng/ml), or different peptide fragments at the same molar concentration 1.47 nmol/L as netrin-1, prior to being subjected to ischemia/reperfusion (I/R) injury (a 20-minute global ischemia followed by a 60-minute reperfusion with or without netrin-1 or different peptide fragments). Hearts were then harvested for analyses of infarct size. For post-conditioning treatment with peptide fragments, hearts underwent 40 minutes of KHB perfusion, 20 minutes of global ischemia, and a 60-minute reperfusion with different peptide fragments.
At the end of I/R protocol, hearts were sliced perpendicular to the long-axis of the heart at 1 mm intervals and stained with 1% triphenyl tetrazolium chloride (TTC) in PBS for 10 minutes at room temperature. After washing with PBS once, sections of the hearts will be fixed in 10% formalin overnight. The heart slices were then digitally photographed for planimetry using NIH Image 1.62. Infarct size is expressed as an infarct-to-risk zone ratio (the risk zone is the whole ventricular volume in this global ischemic model).
Densitometric data of western blotting was obtained by software Image J. Grouped data was analyzed by software Gradpad Prism δ. All values are expressed as Mean±SEM. Comparisons of more than two groups were performed using a one way ANOVA analysis with Newman-Keuls test as a post-hoc test. Statistical significance is set as p<0.05.

[1] = Table 1, prior art peptides, I/R Control 37.6
[2] = Table 2, modified netrin-1 peptides, I/R Control 43.1625, p < 0.001 vs. Control
[3] = Table 2, modified netrin-1 peptides

Substance	Infarct Size Mean (%) [1]	% MI Reduction (Table 1, prior art peptides)	Infarct size	Infarct Size Mean (%) [2]	% MI Reduction [3]	% Improvement in MI Reduction
CPCKDGVTGIT (Peptide based on human Netrin-1 sequence) [V3-11aa, reference compound]	16.7%	56%	16.7±3.0%	–	–	–
(mini-PEG)-CDCRHNTAG ({mini‑PEG}-CDCRHNTAG; cysteine pairing not given here) [V1P]	–	–	–	10.0100%	77%	(77 − 55)/55 = 40%
(mini-PEG)-CLNCRHNTAG ({mini‑PEG}-CLNCRHNTAG; cysteine pairing not given here) [V2P]	–	–	–	18.3315%	58%	(58 − 51)/51 = 14%
TDCRHNTAG [V1T]	–	–	–	15.4650%	64%	(64 − 55)/55 = 16%
CLNCRHNTAG (Peptide based on human Netrin-1 sequence) [V2-10aa, reference compound]	18.6%	51%	18.6±1.7%	–	–	–
CDCRHNTAG (not fully specified (bridges); cysteine pairing not given here) [V1-9aa, reference compound]	16.8%	55%	16.8±2.2%	–	–	–
SDCRHNTAG (Peptide based on human Netrin-1 sequence) [V1S]	–	–	–	12.7750%	71%	(71 − 55)/55 = 29%
(mini-PEG)-CPCKDGVTIGIT ({mini‑PEG}-CPCKDGVTIGIT; cysteine pairing not given here) [V3P]	–	–	–	12.9700%	70%	–
CDCRHNTAG (disulfide 1-3) [V1C]	–	–	–	11.2700%	74%	(74 − 55)/55 = 35%
